Reference: patent US11518777B2, “Inhibitors of the shikimate pathway” (Eberhard Karls Universität Tübingen, priority 2017, dated 2022)

Assays:
A. thaliana = test: Germination and seedling size of A. thaliana on agar containing inhibitor; conditions: for root and cotyledons formation: 260 μM (glyphosate equimolar)
Legionella = type: cell-based; conditions: natural water samples, 37° C., after ten days

## O=C(O)CNCP(=O)(O)O [glyphosate, reference compound]
A. thaliana
  root and cotyledons formation: developed further and showed more distinct root and cotyledons formation

## C[C@@H](O)[C@@H](O)[C@@H](O)[C@H](O)C(=O)CO [7dSh, 7-deoxy-D-altro-heptulose]
A. thaliana; 260 μM
  gravitropism of the seedlings: impaired in gravitropism
A. thaliana
  root and cotyledons formation: only minor root and cotyledons formation was observed
A. thaliana; 260 μM, 7 days of germination
  size of the seedlings: ~2 mm
  size of the seedlings compared to the control: three times lower
A. thaliana; 130-260 μM
  germination process: came to an arrest within the first days
A. thaliana; concentrations higher than 130 μM (~25 μg/mL)
  inhibitory capacity on A. thaliana compared to glyphosate (seedling-size and morphological appearance): significant increased inhibitory capacity
A. thaliana; concentrations up to 50 μM, 7 days of germination
  growth inhibitory effects on A. thaliana: comparable to glyphosate
Legionella
  number of CFUs of Legionella, times lower compared to the control: 4-5 times lower
